Experimental data taken from ChEMBL document CHEMBL1641512, “Lyconadins D and E, and complanadine E, new Lycopodium alkaloids from Lycopodium complanatum” (Bioorg Med Chem, 2011).
Calls of active or inactive are those of the source. The calls are words filed in the database; no cut-off is given here.

Legend:
Format in all cases: cell-based
[1] = target: Beta-nerve growth factor (Homo sapiens) (UniProt P01138); test: Induction of neurotrophic factor mRNA expression in human 1321N1 cells at 100 uM by RT-PCR analysis
[2] = target: Beta-nerve growth factor (Homo sapiens) (UniProt P01138); test: Induction of neurotrophic factor mRNA expression in human 1321N1 cells by RT-PCR analysis
[3] = target: Beta-nerve growth factor (Homo sapiens) (UniProt P01138); test: Induction of neurotrophic factor mRNA expression in human 1321N1 cells at 100 uM by RT-PCR analysis relative to beta-actin mRNA expression

Sequence of Beta-nerve growth factor (Homo sapiens) (P01138 122-241 limits assumed): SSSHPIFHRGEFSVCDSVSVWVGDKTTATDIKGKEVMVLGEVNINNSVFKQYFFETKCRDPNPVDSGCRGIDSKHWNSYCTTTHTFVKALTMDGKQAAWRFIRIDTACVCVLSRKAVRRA

SMILES | Activity [1] | Activity [2] | fold change (FC) [3]
C[C@@H]1CC2=C3NC(=O)CC[C@]34C[C@]3(C1)[C@H]2C[C@@H]4CN3C | inactive | – | –
C[C@@H]1C[C@H]2Cc3ncc(-c4ccc5c(n4)C[C@@H]4C[C@@H](C)C[C@]56NCCC[C@H]46)cc3[C@]3(C1)NCCC[C@H]23 | – | Dose-dependent effect | 3.9
C[C@@H]1C[C@H]2C[C@H]3N[C@H](c4cnc5c(c4)[C@@]46C[C@H](C)C[C@@H](C5)[C@H]4CCCN6)CC[C@H]3[C@]3(C1)NCCC[C@H]23 | – | – | 2.8
C[C@@H]1CC2=C3NC(=O)CC[C@]34C[C@@]3(C1)NC[C@H]4C[C@@H]23 | inactive | – | –
C[C@@H]1C[C@H]2Cc3ncc(-c4ccc5c(n4)C(=O)[C@@H]4C[C@@H](C)C[C@]56NCCC[C@H]46)cc3[C@]3(C1)NCCC[C@H]23 | – | – | 2.3
C[C@@H]1C[C@H]2CC3=C(CC[C@H](c4cnc5c(c4)[C@@]46C[C@H](C)C[C@@H](C5)[C@H]4CCCN6)N3)[C@]3(C1)NCCC[C@H]23 | – | – | 2.4
